In PubChem BioAssay (NCI) one finds TGI and GI50 data, which are given here for ten compounds.

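Where inhibition never reached the appropriate level, the endpoint shown equals the highest concentration tested. Otherwise, values were interpolated linearly from a five-concentration, 48-hour dose response in 96-well plates. Here, GI50 denotes the concentration required for 50% inhibition of growth. Definition used: TGI = concentration required for complete inhibition of growth.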

Some test systems named below: CCRF-CEM leukemia; CAKI-1 renal; NCI-H226 lung; RPMI-8226 leukemia; SK-MEL-5 melanoma; HL-60(TB) leukemia; HOP-62 NSCLC; T-47D breast; MOLT-4 leukemia; HCC-2998 colon.
What all share (assay): NCI tumour cell line growth inhibition, 48 h

On to `O=C(CCBr)N1CCN(C(=O)CCBr)CC1`, for which the TGI in the assay on CCRF-CEM leukemia turned out to be 257 µM; in the assay with CAKI-1 renal, 168 µM; in the assay with NCI-H226 lung, 201 µM; in the assay with RPMI-8226 leukemia it was 394 µM; in the assay on SK-MEL-5 melanoma, 149 µM; in the assay on HL-60(TB) leukemia, 206 µM. Moreover, the TGI in the assay with HOP-62 NSCLC stood at 155 µM; with T-47D breast it was 232 µM; with MOLT-4 leukemia, 215 µM; with HCC-2998 colon it was 140 µM.
With `COc1ccc2c(c1)N(Cc1ccc(Cl)cc1)CCC2N1CCCC1=O` (stereo not given), the GI50 in the assay on CCRF-CEM leukemia is 4.74 µM; in the assay with CAKI-1 renal, 3.49 µM; with NCI-H226 lung it was 2.89 µM; with RPMI-8226 leukemia, 1.46 µM; in the assay on SK-MEL-5 melanoma it was 2.05 µM; in the assay with HL-60(TB) leukemia, 5.34 µM. The GI50 in the assay with HOP-62 NSCLC was 4.27 µM; in the assay with T-47D breast it was 2.85 µM; in the assay on MOLT-4 leukemia, 4.9 µM; in the assay on HCC-2998 colon, 5.32 µM. For the same compound, the TGI is > 100 µM in the assay on CCRF-CEM leukemia; 16.7 µM in the assay on CAKI-1 renal; 34.5 µM in the assay on NCI-H226 lung; 12.8 µM in the assay on RPMI-8226 leukemia; 4.61 µM with SK-MEL-5 melanoma; 24.9 µM in the assay on HL-60(TB) leukemia. The TGI in the assay with HOP-62 NSCLC is 42.7 µM; in the assay on T-47D breast it was 26.2 µM; with MOLT-4 leukemia, 24.6 µM; with HCC-2998 colon, > 100 µM.
With `CC(=O)OCC1OC(n2cnc3nc(Br)[nH]c(=O)c32)C(OC(C)=O)C1OC(C)=O` (stereo not given), the TGI in the assay with CCRF-CEM leukemia, in the assay with CAKI-1 renal, in the assay on NCI-H226 lung, in the assay on RPMI-8226 leukemia, with SK-MEL-5 melanoma and with HL-60(TB) leukemia was > 100 µM each time. The TGI with HOP-62 NSCLC, in the assay on T-47D breast, in the assay on MOLT-4 leukemia and in the assay on HCC-2998 colon was > 100 µM throughout.
As to `C/C=C1/CN2CCC34c5ccccc5N(C)C23C2CC1C4(C(=O)OC)C(OC(C)=O)O2` (stereo not given), the TGI in the assay with CCRF-CEM leukemia, in the assay on CAKI-1 renal, in the assay on NCI-H226 lung, in the assay with RPMI-8226 leukemia, in the assay on SK-MEL-5 melanoma and in the assay with HL-60(TB) leukemia was > 100 µM throughout. Further, the TGI in the assay on HOP-62 NSCLC, in the assay on T-47D breast, in the assay with MOLT-4 leukemia and with HCC-2998 colon was > 100 µM throughout.
With `COC(=O)c1c(O)ccc2c1c1cc3ccccc3cc1n2Cc1cc(OC)cc(OC)c1`, the TGI in the assay on CCRF-CEM leukemia is > 100 µM; in the assay on CAKI-1 renal it was > 28.4 µM; with NCI-H226 lung it was > 100 µM; in the assay with RPMI-8226 leukemia it was > 26.3 µM; with SK-MEL-5 melanoma it was 18.5 µM; in the assay on HL-60(TB) leukemia it was 30.6 µM. For the same compound, the TGI was > 100 µM in the assay with HOP-62 NSCLC, > 63.4 µM with T-47D breast, > 100 µM in the assay with MOLT-4 leukemia and > 100 µM in the assay with HCC-2998 colon.
For `CCOP(=O)(CCCC(O)CNc1nc(N)nc(Cl)c1N=Nc1ccc(Cl)cc1)OCC` (stereo not given), the TGI in the assay with CCRF-CEM leukemia was found to be 9.92 µM; in the assay with CAKI-1 renal, 13.9 µM; in the assay with NCI-H226 lung, 22.1 µM; in the assay on RPMI-8226 leukemia, 8.23 µM; with SK-MEL-5 melanoma, 15.5 µM; in the assay with HL-60(TB) leukemia, 4.19 µM. For the same compound, the TGI in the assay with HOP-62 NSCLC worked out at 24.8 µM; with T-47D breast, 23.2 µM; in the assay with MOLT-4 leukemia, 11.8 µM; in the assay on HCC-2998 colon, 30.6 µM.
As to `CCOC(=O)/C=C(/C(=O)OCC)n1cc(C)c(=O)n(Cc2cnnn2COCCOC(C)=O)c1=O`, the TGI was 5.8 µM in the assay with CCRF-CEM leukemia; 11 µM in the assay on CAKI-1 renal; 28.7 µM in the assay with NCI-H226 lung; 23.8 µM with RPMI-8226 leukemia; 51.5 µM with SK-MEL-5 melanoma; 13.5 µM in the assay on HL-60(TB) leukemia. Moreover, the TGI with HOP-62 NSCLC was > 100 µM; in the assay on T-47D breast it was 46.7 µM; with MOLT-4 leukemia, 18.8 µM; in the assay with HCC-2998 colon it was 39.1 µM.
Turning to `Cc1c(C(=O)O)n2c(=S)[nH]nc2c2ccccc12`, the TGI in the assay with CCRF-CEM leukemia, with CAKI-1 renal, in the assay with NCI-H226 lung, in the assay on RPMI-8226 leukemia, in the assay on SK-MEL-5 melanoma and in the assay with HL-60(TB) leukemia was > 100 µM in each case. Further, the TGI with HOP-62 NSCLC, in the assay with T-47D breast, in the assay on MOLT-4 leukemia and in the assay with HCC-2998 colon was > 100 µM throughout.
As for `O=P(O)(O)c1ccc(-c2ccc(I)cc2)cc1`, the TGI with CCRF-CEM leukemia, with CAKI-1 renal, in the assay on NCI-H226 lung, with RPMI-8226 leukemia, in the assay with SK-MEL-5 melanoma and with HL-60(TB) leukemia was > 100 µM in each case. The TGI in the assay on HOP-62 NSCLC, in the assay on T-47D breast, in the assay with MOLT-4 leukemia and in the assay with HCC-2998 colon was > 100 µM in each case.
Turning to `Cc1nnc(N)nc1/C=C\c1ccc(Cl)cc1Cl`, the TGI in the assay on CCRF-CEM leukemia was 86.4 µM; in the assay on CAKI-1 renal it was > 100 µM; with NCI-H226 lung, 46.2 µM; in the assay with RPMI-8226 leukemia it was > 100 µM; in the assay on SK-MEL-5 melanoma, 81.5 µM; in the assay on HL-60(TB) leukemia, 53 µM. Moreover, the TGI in the assay on HOP-62 NSCLC was 36.3 µM; with T-47D breast it was > 100 µM; with MOLT-4 leukemia it was > 100 µM; with HCC-2998 colon, 42.8 µM.
